Data published in patent US7863315B2, “2-indolinone derivatives as selective histone deacetylase inhibitors” (Shenzhen Chipscreen Biosciences, Ltd., priority 2008, dated 2011).

Legend:
Type in all cases: cell-based
[1] = system: HDAC class I (p21 reporter gene); test: HDAC subtype reporter gene assay, p21-promoter luciferase in HeLa cells; details: Homo sapiens, M-HeLa, read-out: % of SAHA Response for HDAC class I at 10 μM (p21 reporter gene), 24 hours
Experimental: (§1) Measurement of inhibition of HDAC subtypes activity in cells by reporter gene assay: HDAC subtype selectivity inhibition assay of tested compounds was carried out by several reporter gene assays experiments. Briefly, HeLa cells were seeded in 96-well plates the day before transfection to give a confluence of 50-80%. Cells were transfected with one of reporter gene plasmids containing a promoter sequences or response elements upstream of a luciferase gene construct using FuGene6 transfection reagent according to the manufacturer's instructions (Roche). The promoters or response elements including p21-promoter, gdf11-promoter, MEF-binding element (MEF2), Nur77-promoter were fused upstream to the luciferase gene reporter construct. For normalizing the transfection efficiency, a GFP expression plasmid was cotransfected. Cells were allowed to express protein for 24 hours followed by addition of individual compounds or the vehicle (DMSO). 24 hours later, the cells were harvested and the luciferase assays were performed using the luciferase assay kit according to the manufacturer's instructions (Promega). To normalize the data from the luciferase assays, GFP activity from transfected cells was measured in a microtiter-plate reading fluorimeter capable of excitation at a wavelength at 485 nm and detection of emitted light at 527 nm.

[2] = system: HDAC3 (gdf11 reporter gene); test: HDAC subtype reporter gene assay, gdf11-promoter luciferase in HeLa cells; details: Homo sapiens, M-HeLa, read-out: % of SAHA Response for HDAC3 at 10 μM (gdf11 reporter gene), 24 hours
Experimental: as §1

[3] = system: HDAC4/5 (MEF2 reporter gene); test: HDAC subtype reporter gene assay, MEF-binding element (MEF2) luciferase in HeLa cells; details: Homo sapiens, M-HeLa, read-out: % of SAHA Response for HDAC4/5 at 10 μM (MEF2 reporter gene), 24 hours
Experimental: as §1

[4] = system: HDAC7 (Nur77 reporter gene); test: HDAC subtype reporter gene assay, Nur77-promoter luciferase in HeLa cells; details: Homo sapiens, M-HeLa, read-out: % of SAHA Response for HDAC7 at 10 μM (Nur77 reporter gene), 24 hours
Experimental: as §1

Measured: Emax at 10 µM

O=C(CCCCCCC(=O)Nc1ccccc1)NO [SAHA, suberoylanilide hydroxamic acid, reference compound]
100%: all assays above
